Series [1] deals with T1, 5-HT1A (Homo sapiens, UniProt P08908).
T1 sequence (P08908 1-422): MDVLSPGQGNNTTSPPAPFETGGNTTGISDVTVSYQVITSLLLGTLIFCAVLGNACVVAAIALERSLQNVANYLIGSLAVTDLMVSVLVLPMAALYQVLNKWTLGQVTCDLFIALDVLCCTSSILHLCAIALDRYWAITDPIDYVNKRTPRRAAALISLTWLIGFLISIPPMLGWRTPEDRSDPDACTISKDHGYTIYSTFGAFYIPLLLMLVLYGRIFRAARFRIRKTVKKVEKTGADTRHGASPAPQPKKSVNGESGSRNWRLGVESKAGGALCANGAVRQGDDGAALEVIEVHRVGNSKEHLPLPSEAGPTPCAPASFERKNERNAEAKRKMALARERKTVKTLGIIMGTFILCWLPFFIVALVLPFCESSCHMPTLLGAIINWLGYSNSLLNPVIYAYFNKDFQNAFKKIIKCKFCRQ
The series can be described thus: In vitro 5HT1A receptor function experiment (cAMP, forskolin-stimulated HEK293/5HT1A cells). The class given is cell-based. Conditions: for EC50: forskolin 1 µM; for Emax: maximum activation rate. On the set-up: expressed in transfected cells; host or cells: HEK293. The method, then:
1.1.1 Cell information: HEK293/5HT1A: a stably transfected cell strain HEK293/5HT1A constructed by adopting 5HT1A receptor lentivirus to infect HEK293; growth culture medium: DMEM, 10% FBS, and 0.6 µg/mL puro; and cryopreservation culture medium: 70% culture medium, 20% FBS, and 10% DMSO.

Series [2] has as its target T2, Dopamine D3 receptor (Homo sapiens, UniProt P35462).
T2 construct: expressed in transfected cells; host or cells: CHO-K1
The series can be described thus: In vitro dopamine D3 receptor function experiment (CHO-K1/D3/CRE reporter, chemiluminescence). The class given is cell-based. As to conditions: for EC50: forskolin 0.4 µM; for Emax: maximum activation rate. The method, then: 3.1.1 Cell information: CHO-K1/D3/CRE constructed by referring to the method in Example 5 of CN114369578A.
The first day: cell plating • (1) The cultured cells were digested with trypsin, and after the digestion was terminated with culture medium, the cell suspension was transferred to a centrifuge tube and centrifuged at 750 rpm for 5 min. • (2) The supernatant was discarded, and the pellet was resuspended in an appropriate amount of plating medium.
The following day: experimental detection • (1) The test compounds were diluted to 0.2 mM with DMSO, and the reference compound dopamine was diluted to 0.02 mM. • (2) Compound dilution (4-fold dilution at 8 concentration points) was performed using Bravo, with the starting concentrations of the test compounds and the reference compound being 5 µM and 500 nM, respectively. […] The program selected was an ultrasensitive chemiluminescence detection program.

Series [3] can be described thus: In vitro liver microsome stability, SD rat. As to conditions: for CLint(liver): SD rat liver microsomes; for CLint scaled at 1 µM / half-life at 1 µM / microsomal CLint at 1 µM: SD, rat, liver microsomes, pH 7.4.
Procedure: (§1) • (1) Buffer preparation: 73.21 g of dipotassium hydrogen phosphate trihydrate and 10.78 g of potassium dihydrogen phosphate were dissolved in 4000 mL of ultrapure water. The pH of the solution was adjusted to within 7.40 ± 0.10 using 10% phosphoric acid or 1 M potassium hydroxide, resulting in a final concentration of 100 mM. • (2) Solution preparation and dilution: Stock solutions of the test compounds at a concentration of 10 mM were prepared in dimethyl sulfoxide (DMSO) and stored at 4 °C, and they were diluted into 100 µM working solutions with pure acetonitrile when used. A stock solution of the control compound testosterone at a concentration of 10 mM was prepared in DMSO and stored at -20 °C, and it was diluted into a 400 µM working solution with pure acetonitrile when used. • (3) Termination solution preparation: The termination solution was acetonitrile containing the internal standard buspirone. The prepared termination solution was stored in a refrigerator at 2-8 °C. • (4) Liver microsome solution preparation: Microsomes from various species (CD-1 mouse, SD rat, and human) were diluted into a 20× working solution using 100 mM potassium phosphate buffer. The final concentration of the microsomes in the reaction system was 0.5 mg/mL. • (5) Reduced nicotinamide adenine dinucleotide phosphate (NADPH) regeneration system preparation: Appropriate amounts of nicotinamide adenine dinucleotide phosphate (NADP), glucose-6-phosphate (G6P), magnesium chloride (MgCl2), and glucose-6-phosphate dehydrogenase (G6PDH) were weighed to prepare stock solutions at concentrations of 65.33 mM, 330 mM, 300 mM, and 250 Units/mL, respectively. The four stock solutions described above were each added to an appropriate amount of buffer, and the mixture was mixed well by gently inverting up and down. […] Several incubation plates were prepared and named T0, T5, T10, T20, T40, T60, PB60, and NCF60, respectively. […] The NCF60 plate was incubated for 60 min with potassium phosphate buffer replacing the NADPH regeneration system solution. The PB60 plate was incubated for 60 min with potassium phosphate buffer replacing the liver microsomes. Samples under all conditions were prepared in triplicate.
(§2) 2 µL of the test compound or control compound and 100 µL of microsome working solution (containing 1 mg/mL liver microsome protein) were added to each of the T0, T5, T10, T20, T40, T60, and NCF60 plates, and 2 µL of the test compound and 100 µL of potassium phosphate buffer were added to the PB60 plate. The plates described above were then pre-incubated in a 37 °C water bath for about 5 min.
(§3) After the pre-incubation, 600 µL of the termination solution was first added to the T0 samples, followed by the addition of 98 µL of NADPH regeneration system working solution. The plate was sealed, shaken, and then allowed to wait for simultaneous processing with subsequent samples. Except for the NCF60 plate where 98 µL of potassium phosphate buffer was added to each sample well, 98 µL of NADPH regeneration system working solution was added to each sample well of the other incubation plates to initiate the reaction. In the reaction system, the final concentrations of the test compound and the control compound were 1 µM and 4 µM, respectively, the concentration of the liver microsomes was 0.5 mg/mL, and the final concentrations of DMSO and acetonitrile were 0.01% (v/v) and 0.99% (v/v), respectively.
(§4) After incubation for an appropriate time (such as 5, 10, 20, 40, and 60 min), 600 µL of the termination solution containing the internal standard was added to each test compound sample and control compound well to terminate the reaction. The plates were sealed, shaken well, and then centrifuged at 4000 ×g and 4 °C for 15 min.
Series [4] can be described thus: In vitro liver microsome stability, human. Conditions: for CLint(liver): Human liver microsomes; for CLint scaled at 1 µM / half-life at 1 µM / microsomal CLint at 1 µM: human, liver microsomes, pH 7.4.
Procedure: as §1, §2, §3, §4
Series [5] is described as follows: In vitro liver microsome stability, CD-1 mouse. As to conditions: for CLint scaled at 1 µM / half-life at 1 µM / microsomal CLint at 1 µM: CD-1, mouse, liver microsomes, pH 7.4; for CLint(liver): CD-1 mouse liver microsomes.
Procedure: as §1, §2, §3, §4

T2 sequence (P35462 whole entry, species assumed): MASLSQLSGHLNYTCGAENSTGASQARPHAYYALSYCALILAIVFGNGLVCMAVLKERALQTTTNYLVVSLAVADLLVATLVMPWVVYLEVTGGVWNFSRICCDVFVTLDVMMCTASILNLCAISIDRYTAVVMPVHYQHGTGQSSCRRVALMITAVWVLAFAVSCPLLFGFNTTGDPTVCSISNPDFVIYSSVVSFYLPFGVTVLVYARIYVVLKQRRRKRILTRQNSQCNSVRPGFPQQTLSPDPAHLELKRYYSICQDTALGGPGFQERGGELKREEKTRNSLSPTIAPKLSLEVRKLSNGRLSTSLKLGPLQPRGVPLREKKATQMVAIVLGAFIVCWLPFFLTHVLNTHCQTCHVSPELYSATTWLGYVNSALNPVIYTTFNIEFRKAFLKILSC

`CCCN(CC1CCN(C(=O)c2ccc3ccccc3c2)CC1)[C@H]1CCc2nc(N)sc2C1` [Example 23, (S)-(4-(((2-Amino-4,5,6,7-tetrahydrobenzo[d]thiazol-6-yl)(propyl)amino)methyl)piperidin-1-yl)(naphthalen-2-yl)methanone]: in series [1], the half-maximal effective concentration (EC50) was 202 nM and the Emax came to 101%.
The corresponding values for `CCCN(CC1CCN(S(=O)(=O)c2ccccc2)CC1)[C@H]1CCc2nc(N)sc2C1` [Example 30, (S)-N^6-((1-(Phenylsulfonyl)piperidin-4-yl)methyl)-N^6-propyl-4,5,6,7-tetrahydrobenzo[d]thiazole-2,6-diamine] are 39.9 nM and 125%.
Turning to `CCN(CC1CCN(c2cccc3sccc23)CC1)[C@H]1CCc2nc(N)sc2C1` [Example 13, (S)-N^6-((1-(Benzo[b]thiophen-4-yl)piperidin-4-yl)methyl)-N^6-ethyl-4,5,6,7-tetrahydrobenzo[d]thiazole-2,6-diamine], the results for the EC50 in series [2] and in series [1] were 3 nM and 35.9 nM, respectively. For the same compound, the results for the Emax in series [2] and in series [1] were 133% and 118%, respectively.
In series [1], `CCCN(CC1CCN(C(=O)c2cc3ccccc3s2)CC1)[C@H]1CCc2nc(N)sc2C1` [Example 22, (S)-(4-(((2-Amino-4,5,6,7-tetrahydrobenzo[d]thiazol-6-yl)(propyl)amino)methyl)piperidin-1-yl)(benzo[b]thiophen-2-yl)methanone] returned an EC50 of 99.3 nM and an Emax of 115%.
In series [2], `CCCN(CC1CCN(S(=O)(=O)c2ccc(F)c(Cl)c2)CC1)[C@H]1CCc2nc(N)sc2C1` [Example 31, (S)-N^6-((1-((3-Chloro-4-fluorophenyl)sulfonyl)piperidin-4-yl)methyl)-N^6-propyl-4,5,6,7-tetrahydrobenzo[d]thiazole-2,6-diamine] displayed an EC50 of 3.6 nM and a maximal response (Emax) of 103%. In series [1], this compound displayed an EC50 of 124 nM and an Emax of 120%.
For `CCCN(CC1CCN(C(=O)c2ccc[nH]2)CC1)[C@H]1CCc2nc(N)sc2C1` [Example 26, (S)-(4-(((2-Amino-4,5,6,7-tetrahydrobenzo[d]thiazol-6-yl)(propyl)amino)methyl)piperidin-1-yl)(1H-pyrrol-2-yl)methanone], in series [2], it took 1.2 nM to reach a half-maximal effect (EC50) and the Emax turned out to be 109%. In series [1], this compound returned an EC50 of 16.4 nM and an Emax of 103%.
In series [1], `CCCN(CC1CCN(C(=O)c2ccc(C#N)nc2)CC1)[C@H]1CCc2nc(N)sc2C1` [Example 20, (S)-5-(4-(((2-Amino-4,5,6,7-tetrahydrobenzo[d]thiazol-6-yl)(propyl)amino)methyl)piperidine-1-carbonyl)pyridinecarbonitrile] registered an EC50 of 131 nM and an Emax of 115%.
In series [2], `CCCN(CC1CCN(C(=O)c2cc3ccccc3[nH]2)CC1)[C@H]1CCc2nc(N)sc2C1` [Example 21, (S)-(4-(((2-Amino-4,5,6,7-tetrahydrobenzo[d]thiazol-6-yl)(propyl)amino)methyl)piperidin-1-yl)(1H-indol-2-yl)methanone] displayed an EC50 of 1.3 nM and an Emax of 105%.
Turning to `CCCN(CC1CCN(C(=O)c2ccc(F)c(Cl)c2)CC1)[C@H]1CCc2nc(N)sc2C1` [Example 15, (S)-(4-(((2-Amino-4,5,6,7-tetrahydrobenzo[d]thiazol-6-yl)(propyl)amino)methyl)piperidin-1-yl)(3-chloro-4-fluorophenyl)methanone], in series [1], the EC50 was found to be 4.7 nM and the maximal effect (Emax) turned out to be 85.1%.
The corresponding values for `CCCN(CC1CCN(c2cccc3sccc23)CC1)C1CCc2nc(N)sc2C1` (centres unmarked) [Example 12, N^6-((1-(Benzo[b]thiophen-4-yl)piperidin-4-yl)methyl)-N^6-propyl-4,5,6,7-tetrahydrobenzo[d]thiazole-2,6-diamine] are 31.4 nM and 115%.
On the same counts, the results for `CCCN(CC1CCN(C(=O)c2ccc(F)c(Cl)n2)CC1)[C@H]1CCc2nc(N)sc2C1` [Example 18, (S)-(4-(((2-Amino-4,5,6,7-tetrahydrobenzo[d]thiazol-6-yl)(propyl)amino)methyl)piperidin-1-yl)(6-chloro-5-fluoropyridin-2-yl)methanone] are 48 nM and 115%.
On the same counts, the results for `CCCN(CCC1CCN(C(=O)c2ccc(F)c(Cl)c2)CC1)[C@H]1CCc2nc(N)sc2C1` [Example 16, (S)-(4-(2-((2-Amino-4,5,6,7-tetrahydrobenzo[d]thiazol-6-yl)(propyl)amino)ethyl)piperidin-1-yl)(3-chloro-4-fluorophenyl)methanone] are 143 nM and 93.7%.
In series [1], `CCCN(CC1CCN(C(=O)c2ccc(F)nc2)CC1)[C@H]1CCc2nc(N)sc2C1` [Example 19, (S)-(4-(((2-Amino-4,5,6,7-tetrahydrobenzo[d]thiazol-6-yl)(propyl)amino)methyl)piperidin-1-yl)(6-fluoropyridin-3-yl)methanone] had a concentration giving a half-maximal response (EC50) of 184 nM and an Emax of 99.5%.
Regarding `CCCN(CC1CCN(C(=O)c2cccs2)CC1)[C@H]1CCc2nc(N)sc2C1` [Example 24, (S)-(4-(((2-Amino-4,5,6,7-tetrahydrobenzo[d]thiazol-6-yl)(propyl)amino)methyl)piperidin-1-yl)(thiophen-2-yl)methanone], in series [3], the “CLint(liver)” value came to 75.2 mL/min/K g, the intrinsic metabolic clearance (CLint scaled) at 1 µM fell in the range of 23.7 to 129 mL/min/kg, the half-life at 1 µM turned out to be 33.2 min and the microsomal CLint at 1 µM was 41.8 µL/min/mg. For the same compound, in series [4], the “CLint(liver)” value was found to be 34.3 mL/min/K g, the CLint scaled at 1 µM lay within 8.9 to 48.3 mL/min/kg, the half-life at 1 µM was found to be 36.4 min and the microsomal CLint at 1 µM was 38.1 µL/min/mg. Moreover, in series [5], the CLint scaled at 1 µM was 38.6 to 210 mL/min/kg, the half-life at 1 µM was 46.9 min, the microsomal CLint at 1 µM came out at 29.6 µL/min/mg and the “CLint(liver)” value is listed as 117.1 mL/min/K g. In series [1], this compound gave a half-maximal effective concentration (EC50) of 75.7 nM and an Emax of 96.5%.
On to `CCCN(CC1CCN(C(=O)c2cncs2)CC1)[C@H]1CCc2nc(N)sc2C1` [Example 27, (S)-(4-(((2-Amino-4,5,6,7-tetrahydrobenzo[d]thiazol-6-yl)(propyl)amino)methyl)piperidin-1-yl)(thiazol-5-yl)methanone], for which, in series [3], the “CLint(liver)” value turned out to be 25.5 mL/min/K g, the CLint scaled at 1 µM fell in the range of 23.7 to 129 mL/min/kg, the half-life at 1 µM turned out to be 97.9 min and the microsomal CLint at 1 µM was determined as 14.2 µL/min/mg. Besides, in series [4], the “CLint(liver)” value stood at 14.7 mL/min/K g, the CLint scaled at 1 µM was 8.9 to 48.3 mL/min/kg, the half-life at 1 µM is 84.9 min and the microsomal CLint at 1 µM turned out to be 16.3 µL/min/mg. Also, in series [5], the CLint scaled at 1 µM was in the range of 38.6 to 210 mL/min/kg, the half-life at 1 µM is 85.8 min, the intrinsic metabolic clearance (microsomal CLint) at 1 µM was 16.2 µL/min/mg and the “CLint(liver)” value was 64.0 mL/min/K g. Besides, in series [1], a half-maximal response (EC50) required 87.3 nM and the Emax is 99.9%.
In series [2], `CCCN(CC1CCN(c2cccc(Cl)c2Cl)CC1)[C@H]1CCc2nc(N)sc2C1` [Example 7, (S)-N^6-((1-(2,3-Dichlorophenyl)piperidin-4-yl)methyl)-N^6-propyl-4,5,6,7-tetrahydrobenzo[d]thiazole-2,6-diamine] registered an EC50 of 2.9 nM and an Emax of 122%.

The values are drawn from patent EP4570798A1, “AROMATIC HETEROCYCLIC CYCLOHEXYL AMINOALKYL PIPERIDINE DERIVATIVE, PREPARATION METHOD AND USE THEREOF” (Jiangsu NHWA Pharmaceutical Co., Ltd, priority 2022, dated 2024).
